Measurements from US12295952B2, “Methods of treating heart failure with cardiac sarcomere activators” (Amgen Inc., priority 2017, dated 2025).
Where “and” joins values, the source holds several entries; their conditions need not be identical. Equal values may be shown once. Entries after “also recorded” stand apart in the source; their conditions may differ.

Assays:
patients = details: previous work, similar population of patients; cited from earlier work
[1] = tested on: patients with stable, symptomatic chronic heart failure and left ventricular ejection fraction 40% or lower; experiment: COSMIC-HF: changes in cardiac function, ventricular diameters, heart rate and NT-proBNP; format: in vivo, human; details: for NT-proBNP concentration in plasma, difference versus placebo: 4 weeks after omecamtiv mecarbil was stopped
Experimental: (§1) In this randomized, double-blind study, done at 87 sites in 13 countries, patients with stable, symptomatic chronic heart failure and left ventricular ejection fraction 40% or lower were recruited. Patients were randomly assigned equally, via an interactive web response system, to receive 25 mg oral omecamtiv mecarbil twice daily (fixed-dose group), 25 mg twice daily titrated to 50 mg twice daily guided by pharmacokinetics (pharmacokinetic-titration group), or placebo for 20 weeks. The maximum concentration of omecamtiv mecarbil in plasma (primary endpoint) and changes in cardiac function and ventricular diameters were assessed. This trial is registered with ClinicalTrials.gov, number NCT01786512.
(§2) Patients attended study clinics at weeks 2 and 8, after which visits were every 4 weeks until week 24. Transthoracic echocardiograms were done at baseline, week 12, and week 20 and analyzed centrally. Blood samples were obtained at specified visits for analysis in the central laboratory.
(§3) The primary endpoint was the maximum concentration of omecamtiv mecarbil at the week 2 and 12 visits and the predose concentration at the week 2, 8, 12, 16, and 20 visits. Secondary endpoints were changes from baseline in systolic ejection time, stroke volume, left ventricular end-systolic and end-diastolic diameters, heart rate, and concentration of NT-proBNP in plasma at week 20. Additional prespecified exploratory echocardiographic endpoints included left ventricular fractional shortening, end-systolic and end-diastolic volumes, and ejection fraction. The clinical events committee adjudicated whether admissions to hospital and deaths and all episodes of myocardial ischaemia or infarction reported by investigators or based on an increase of cardiac troponin I concentration in plasma met the criteria for study endpoints.
The standard deviations (SDs) for maximum and minimum concentrations of omecamtiv mecarbil in plasma were assumed to be in the range of 40-140 ng/mL.^6-8,11-13 On this basis, it was calculated that 142 patients in the pharmacokinetic-titration group would provide a two-sided 95% CI with half width of 6·6-23·0 ng/mL, assuming that 5% of patients would not have assessable concentrations of omecamtiv mecarbil, which was deemed sufficient for accurate population estimates of these concentrations. Previous work in a similar population of patients had shown that plasma concentrations of omecamtiv mecarbil as low as 100-200 ng/mL had some effect on cardiac function, but that the effect on stroke volume seemed to plateau with concentrations greater than 400 ng/mL, and that plasma concentrations greater than 1200 ng/mL were not clinically tolerated.^7 Thus, it was attempted to achieve a maximum concentration greater than 200 ng/mL and avoid exposures to concentrations greater than 1000 ng/mL. Additionally, with 150 patients in each group and significance set at α=0·05 (two-sided), it was estimated that the statistical power for detecting a treatment effect on the echocardiographic endpoints of systolic ejection time, stroke volume, and left ventricular end-systolic diameter would be more than 90%. Differences between groups for changes in echo cardio graphic variables, heart rate, and NT-proBNP concentrations from baseline were estimated with a repeated measures model fitted separately for each variable and that included the stratification factors of presence or absence of atrial fibrillation or flutter at randomisation, baseline value, treatment group, visit, and treatment group by visit interaction. An unstructured covariance matrix was used to account for the correlation between visits within patients. Least squares mean differences with 95% CIs of the mean relative to placebo are presented unless otherwise indicated. As the study was hypothesis generating, all p values are nominal with no multiplicity adjustment. This study is registered with ClinicalTrials.gov, number NCT01786512.

[2] = tested on: patients with stable, symptomatic chronic heart failure and left ventricular ejection fraction 40% or lower; experiment: COSMIC-HF: safety variables and adverse events; format: in vivo
Experimental: as §1, §2, §3

[3] = COSMIC-HF: concentrations of omecamtiv mecarbil in plasma; format: in vivo; details: for Maximum Concentration / Predose Concentration: mean (SD)
Experimental: as §1
All patients received study treatment or placebo for 20 weeks and were followed up at week 24 after randomization. Patients in the pharmacokinetic-titration group received 25 mg omecamtiv mecarbil twice daily for 2 weeks to reach a steady state. If the trough omecamtiv mecarbil concentration in plasma before the morning dose (predose concentration) at 2 weeks was less than 200 ng/mL, the dose was titrated up to 50 mg twice daily at week 8. If the predose concentration was 200 ng/mL or higher, patients continued taking 25 mg twice daily until the end of the study. To access the pharmacokinetics in this population more rigorously than permitted by just trough sampling, intensive pharmacokinetic sampling was done at the end of weeks 2 and 12, over a period of 8 h on each day.
as §3

[4] = pharmacokinetic-titration group
[5] = week 20, pharmacokinetic-titration group
[6] = pharmacokinetic-titration OM group (n = 146)
[7] = Week 2, fixed-dose group (25 mg twice daily)
[8] = Week 12, fixed-dose group (25 mg twice daily)
[9] = Week 12, fixed-dose group (25 mg twice daily), listed as OM
[10] = Week 12, fixed-dose group, of 137 patients with measurements
[11] = Week 12, pharmacokinetic-titration group
[12] = Week 12, pharmacokinetic-titration group, listed as OM
[13] = Week 12, pharmacokinetic-titration group, of 127 patients with measurements

COC(=O)N1CCN(Cc2cccc(NC(=O)Nc3ccc(C)nc3)c2F)CC1 [omecamtiv mecarbil]
Plasma concentrations at which the effect on stroke volume seemed to plateau (patients): greater than 400 ng/mL | Plasma concentrations not clinically tolerated (patients): greater than 1200 ng/mL | Plasma concentrations that had some effect on cardiac function (as low as) (patients): 100 to 200 ng/mL | NT-proBNP concentration in plasma, difference versus placebo ([1]; fixed-dose group): -1327 pg/mL | NT-proBNP concentration in plasma, difference versus placebo [1, 4]: -1306 pg/mL | Systolic ejection times, average increases ([1]; chronic oral administration, across both omecamtiv mecarbil groups): 11 to 25 ms | NT-proBNP concentration in plasma, least square mean difference versus placebo ([1]; week 20, fixed-dose group): -822 pg/mL | Stroke volume, least square mean difference versus placebo ([1]; week 20, fixed-dose group): 5 mL | Systolic ejection time, least square mean difference versus placebo ([1]; week 20, fixed-dose group): 11 ms | Fractional shortening compared with placebo [1, 5]: increases | Left ventricular end-diastolic and end-systolic volumes compared with placebo [1, 5]: reductions | NT-proBNP concentration in plasma, least square mean difference versus placebo [1, 5]: -970 pg/mL | Stroke volume, least square mean difference versus placebo [1, 5]: 3.6 mL and 4 mL | Systolic ejection time, least square mean difference versus placebo [1, 5]: 25 ms | Frequencies of adverse events, serious adverse events and deaths across groups (versus placebo) ([2]; 20 weeks of treatment): did not differ; also recorded: similar | Adjudicated clinical events: Cardiovascular death, % ([2]; fixed-dose OM group (n = 150)): (1%) | Adjudicated clinical events: Cardiovascular death, number ([2]; fixed-dose OM group (n = 150)): 1 | Adjudicated clinical events: Death, % ([2]; fixed-dose OM group (n = 150)): (1%) | Adjudicated clinical events: Death, number ([2]; fixed-dose OM group (n = 150)): 1 | Adjudicated clinical events: Hospital admission: Chest paint†, % ([2]; human, in vivo, 20 weeks): (1%) | Adjudicated clinical events: Hospital admission: Chest paint†, number ([2]; human, in vivo, 20 weeks): 2 | Adjudicated clinical events: Hospital admission: Myocardial infarction, % ([2]; human, in vivo, 20 weeks): (1%) | Adjudicated clinical events: Hospital admission: Myocardial infarction, number ([2]; human, in vivo, 20 weeks): 1 | Adjudicated clinical events: Hospital admission: Unstable angina, % ([2]; human, in vivo, 20 weeks): (1%) | Adjudicated clinical events: Total myocardial infarction**, % ([2]; human, in vivo, 20 weeks): (1%) | Serious adverse events: Acute cardiac failure, % ([2]; human, in vivo, 20 weeks): (2%) | Serious adverse events: Acute cardiac failure, number ([2]; human, in vivo, 20 weeks): 3 | Serious adverse events: Cardiac, % ([2]; human, in vivo, 20 weeks): (12%) | Serious adverse events: Congestive cardiac failure, % ([2]; human, in vivo, 20 weeks): (2%) | Serious adverse events: Congestive cardiac failure, number ([2]; human, in vivo, 20 weeks): 3 | Serious adverse events: Ventricular tachycardia, % ([2]; human, in vivo, 20 weeks): (1%) | Adjudicated clinical events: Hospital admission: Myocardial infarction, number ([2]; in vivo): 0 | Cardiac troponin | concentrations: Change to Week 24 ([2]; in vivo): 0 ng/mL | Share of maximum cardiac troponin I increases from baseline that were less than 0·1 ng/mL ([2]; in vivo): 92% | Share of maximum cardiac troponin I increases from baseline that were less than 0·2 ng/mL ([2]; in vivo): 97% | Time for plasma cardiac troponin I to return to baseline levels after discontinuing ([2]; in vivo): ≤ 4 weeks | Troponin-triggered potential adverse events deemed myocardial ischaemia or myocardial infarction on adjudication ([2]; in vivo): none | Adjudicated clinical events: Cardiovascular death, % [2, 6]: (1%) | Adjudicated clinical events: Cardiovascular death, number [2, 6]: 2 | Adjudicated clinical events: Death, % [2, 6]: (2%) | Adjudicated clinical events: Death, number [2, 6]: 3 | Maximum Concentration [3, 7]: 212 (70.4) 33.2% ng/mL | Predose Concentration [3, 7]: 174 (62.2) 35.7% ng/mL | Predose Concentration ([3]; Week 2, pharmacokinetic-titration group (25 mg titrated to 50 mg twice daily)): 179 (68.8) 38.4% ng/mL | Maximum Concentration ([3]; Week 2, pharmacokinetic-titration group): 212 (81.0) 38.2% ng/mL | Predose Concentration ([3]; Week 8, fixed-dose group (25 mg twice daily)): 156 (69.1) 44.2% ng/mL | Predose Concentration ([3]; Week 8, pharmacokinetic-titration group): 161 (74.4) 46.1% ng/mL | Maximum Concentration [3, 8]: 200 (SD 71) ng/mL and 200 (71) ng/mL | Predose Concentration [3, 8]: 165 (SD 68) ng/mL | Maximum Concentration [3, 9]: 200 (71.1) 35.6% ng/mL | Predose Concentration [3, 9]: 165 (67.9) 41.3% ng/mL | Patients with maximum drug concentrations in plasma greater than or equal to 200 ng/mL, % [3, 10]: 46% | Patients with maximum drug concentrations in plasma greater than or equal to 200 ng/mL, number [3, 10]: 63 | Maximum Concentration [3, 11]: 318 (129) ng/mL | Predose Concentration [3, 11]: 263 (116) ng/mL | Maximum Concentration [3, 12]: 318 (129) 40.5% ng/mL | Predose Concentration [3, 12]: 263 (116) 44.1% ng/mL | Patients with maximum drug concentrations in plasma greater than or equal to 200 ng/mL, % [3, 13]: 87% | Patients with maximum drug concentrations in plasma greater than or equal to 200 ng/mL, number [3, 13]: 110 | Predose Concentration ([3]; Week 16, fixed-dose group (25 mg twice daily)): 155 (69.0) 44.6% ng/mL | Predose Concentration ([3]; Week 16, pharmacokinetic-titration group): 240 (120) 50.0% ng/mL | Predose Concentration ([3]; Week 20, fixed-dose group (25 mg twice daily)): 149 (71.2) 47.8% ng/mL | Predose Concentration ([3]; Week 20, pharmacokinetic-titration group): 239 (118) 49.5% ng/mL | Maximum observed concentration in plasma at any time during the study ([3]; fixed-dose group): 453 ng/mL | Maximum observed concentration in plasma at any time during the study [3, 4]: 831 ng/mL | Patients with a maximum concentration greater than 750 ng/mL [3, 4]: one
